System: 817829-284-R-J1-PDC complex spheroid viability
Test: Anticancer human tumor 817829-284-R-J1-PDC patient-derived colon adenocarcinoma cell line growth inhibition [POLQ]
Settings: for IC50: curve of first compound; for viability, T/C: stronger effect = lower value
Description: Multicellular complex tumor spheroid response to Polymerase (POL) inhibitors (novobiocin, ART-558, RP6685) in combination with a variety of drugs and investigational agents in selected tumor cell lines
The POL inhibitors (novobiocin, ART-558, and RP6685) were evaluated both individually and in combination with standard of care and investigational anticancer small molecules within a complex spheroid model of solid tumors. . Complex spheroids include a stromal component modeled by human endothelial cells (HUVEC) and fibroblasts modeled by human mesenchymal stem cells (MSCs). The concentration ranges selected for each drug and investigational agent were based upon clinically achievable concentrations if the clinical Cmax of the agent was known.
Compounds. The drugs and investigational agents: novobiocin (NSC847541), ART-558 (NSC835418), RP-6685 (NSC848927), peposertib (NSC802822), ceralasertib (NSC780249), elimusertib (NSC800525), camonsertib (NSC841442), AZD-1390 (NSC803789), olaparib (NSC753686), talazoparib (NSC767125), rucaparib (NSC756644), sotorasib (NSC818433), MRTX-1133 (NSC836407), SN-38 (NSC673596), topotecan (NSC609699), epotoside (NSC141540), doxorubicin (NSC123127), gemcitabine (NSC613327), 5-fluorouracil (NSC19893), paclitaxel (NSC125973), vemurafenib (NSC761431), MSA-2 (NSC828583), SN-011 (NSC837082), adavosertib (NSC754352), prexasertib (NSC758257), carboplatin (NSC241240) and oxaliplatin (NSC266046), were obtained from the National Cancer Institute (NCI) Developmental Therapeutics Program Chemical Repository (21). The FDA-approved anticancer drug set is available from the Developmental Therapeutics Program at https://dtp.cancer.gov/organization/dscb/obtaining/. […] The stock solutions were prepared in dimethyl sulfoxide (DMSO, Sigma-Aldrich, St. Louis, MO, cat. D2650), except for the platinum compounds which were prepared in saline (Quality Biological, Gaithersburg, MD, cat. 114-055-101), at 800-fold the tested concentration and stored at -70 degrees C prior to their use. All drugs and investigational agents were tested over a range starting from a high concentration at or near the clinical Cmax and decreasing in half-log increments. If the clinical Cmax for an agent had not been determined, the highest concentration tested was 10 microM, except for SN-38, which was tested at a high concentration of 1 microM.
Cell Culture. All cells were maintained in an incubator at 37 degrees C and 5% CO2 with 95% humidity. The PDC lines were cultured according to standard operating procedures established by the NCI PDMR (https://pdmr.cancer.gov). Table 3 of the manuscript, lists the cell lines along with the number of the three cell types plated to form the mct-spheroids and media for tumor cell growth. After thawing, all PDC lines, except 997537-175-T-J1-PDC and 415267-285-R-J2-PDC, were cultured in Matrigel-coated flasks prepared with a working solution of 1X Ham's F-12 nutrient mix, without supplementation (Thermo Fisher Scientific, cat. 11765054), 100 U/mL penicillin-streptomycin (Thermo Fisher Scientific, cat. 15140122), and 2.5% Matrigel (Corning Inc., Corning, NY, cat. 354248) for the first three passages. The two PDC lines 997537-175-T-J1-PDC and 415267-285-R-J2-PDC were cultured on uncoated flasks. The 857933-349-R-J2-PDC line was cultured in 6C/Colon 1B media containing advanced DMEM/F-12 (Thermo Fisher Scientific, cat. 12634028), 10 mM HEPES (Thermo Fisher Scientific, cat. 15630080), 1X GlutaMAX supplement (Thermo Fisher Scientific, cat. 35050061), 0.1 mg/mL primocin (InvivoGen, San Diego, CA, cat. ant-pm-2), 10% defined fetal bovine serum, heat inactivated (HyClone Laboratories Inc., Logan, UT, cat. SH30070.03HI), 50% L-WRN conditioned media (ATCC, cat. CRL-3276), 1.25 mM N-Acetyl-L-cysteine (Sigma-Aldrich, cat. A9165), 10 mM nicotinamide (Sigma-Aldrich, cat. N0636), 1X B-27 supplement (Thermo Fisher Scientific, cat. 17504044), 1X N-2 supplement (Thermo Fisher Scientific, cat. […]

[1] = second compound 0.0316 µM, first compound 0.0316 µM
[2] = second compound 0.0316 µM, first compound 0.1 µM
[3] = second compound 0.0316 µM, first compound 0.316 µM
[4] = second compound 0.0316 µM, first compound 1 µM
[5] = second compound 0.0316 µM, first compound 3.16 µM
[6] = second compound 0.0316 µM, first compound 10 µM
[7] = second compound 0.1 µM, first compound 0.0316 µM
[8] = second compound 0.1 µM, first compound 0.1 µM
[9] = second compound 0.1 µM, first compound 0.316 µM
[10] = second compound 0.1 µM, first compound 1 µM
[11] = second compound 0.1 µM, first compound 3.16 µM
[12] = second compound 0.1 µM, first compound 10 µM
[13] = second compound 0.316 µM, first compound 0.0316 µM
[14] = second compound 0.316 µM, first compound 0.1 µM
[15] = second compound 0.316 µM, first compound 0.316 µM
[16] = second compound 0.316 µM, first compound 1 µM
[17] = second compound 0.316 µM, first compound 3.16 µM
[18] = second compound 0.316 µM, first compound 10 µM
[19] = second compound 1 µM, first compound 0.0316 µM
[20] = second compound 1 µM, first compound 0.1 µM
[21] = second compound 1 µM, first compound 0.316 µM
[22] = second compound 1 µM, first compound 1 µM
[23] = second compound 1 µM, first compound 3.16 µM
[24] = second compound 1 µM, first compound 10 µM
[25] = second compound 3.16 µM, first compound 0.0316 µM
[26] = second compound 3.16 µM, first compound 0.1 µM
[27] = second compound 3.16 µM, first compound 0.316 µM
[28] = second compound 3.16 µM, first compound 1 µM
[29] = second compound 3.16 µM, first compound 3.16 µM
[30] = second compound 3.16 µM, first compound 10 µM
[31] = second compound 10 µM, first compound 0.0316 µM
[32] = second compound 10 µM, first compound 0.1 µM
[33] = second compound 10 µM, first compound 0.316 µM
[34] = second compound 10 µM, first compound 1 µM
[35] = second compound 10 µM, first compound 3.16 µM
[36] = second compound 10 µM, first compound 10 µM
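Note: spheroids exposed to compounds for 7 days.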
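Throughout, for viability, T/C: 100% = DMSO vehicle-treated spheroids.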

C#Cc1c(F)ccc2cc(O)cc(-c3ncc4c(N5CC6CCC(C5)N6)nc(OCC56CCCN5CC(F)C6)nc4c3F)c12 (stereo unspecified) + Nc1ccc(C#CCN(C(=O)Cc2ncc(C(F)(F)F)cc2C(F)(F)F)c2ccc(F)cc2)nn1
IC50 (second compound 0.0316 µM): > 10 µM | IC50 (second compound 0.1 µM): > 10 µM | IC50 (second compound 0.316 µM): > 10 µM | IC50 (second compound 1 µM): > 10 µM | IC50 (second compound 3.16 µM): > 10 µM | IC50 (second compound 10 µM): > 10 µM | viability, T/C [1]: 78.6% | viability, T/C [2]: 105% | viability, T/C [3]: 104% | viability, T/C [4]: 93.8% | viability, T/C [5]: 114% | viability, T/C [6]: 84.2% | viability, T/C [7]: 92.1% | viability, T/C [8]: 87.9% | viability, T/C [9]: 93% | viability, T/C [10]: 92.4% | viability, T/C [11]: 103% | viability, T/C [12]: 92.7% | viability, T/C [13]: 101% | viability, T/C [14]: 94.5% | viability, T/C [15]: 105% | viability, T/C [16]: 86.8% | viability, T/C [17]: 116% | viability, T/C [18]: 91.8% | viability, T/C [19]: 106% | viability, T/C [20]: 88.4% | viability, T/C [21]: 98.6% | viability, T/C [22]: 91.6% | viability, T/C [23]: 97.9% | viability, T/C [24]: 101% | viability, T/C [25]: 97.5% | viability, T/C [26]: 99.8% | viability, T/C [27]: 101% | viability, T/C [28]: 86.9% | viability, T/C [29]: 93.2% | viability, T/C [30]: 95.7% | viability, T/C [31]: 95.5% | viability, T/C [32]: 102% | viability, T/C [33]: 73.8% | viability, T/C [34]: 102% | viability, T/C [35]: 96.3% | viability, T/C [36]: 80.4%

C=CC(=O)N1CCN(c2nc(=O)n(-c3c(C)ccnc3C(C)C)c3nc(-c4c(O)cccc4F)c(F)cc23)C(C)C1 (stereo unspecified) + Nc1ccc(C#CCN(C(=O)Cc2ncc(C(F)(F)F)cc2C(F)(F)F)c2ccc(F)cc2)nn1
IC50 (second compound 0.0316 µM): > 10 µM | IC50 (second compound 0.1 µM): > 10 µM | IC50 (second compound 0.316 µM): > 10 µM | IC50 (second compound 1 µM): > 10 µM | IC50 (second compound 3.16 µM): 9.67 µM | IC50 (second compound 10 µM): > 10 µM | viability, T/C [1]: 77.4% | viability, T/C [2]: 103% | viability, T/C [3]: 97.2% | viability, T/C [4]: 93.5% | viability, T/C [5]: 91.7% | viability, T/C [6]: 51.3% | viability, T/C [7]: 95% | viability, T/C [8]: 110% | viability, T/C [9]: 101% | viability, T/C [10]: 99.8% | viability, T/C [11]: 84.2% | viability, T/C [12]: 60.5% | viability, T/C [13]: 104% | viability, T/C [14]: 91.3% | viability, T/C [15]: 96.6% | viability, T/C [16]: 98% | viability, T/C [17]: 93.5% | viability, T/C [18]: 61.6% | viability, T/C [19]: 102% | viability, T/C [20]: 119% | viability, T/C [21]: 112% | viability, T/C [22]: 97.8% | viability, T/C [23]: 94.5% | viability, T/C [24]: 52.9% | viability, T/C [25]: 96% | viability, T/C [26]: 89% | viability, T/C [27]: 102% | viability, T/C [28]: 90.8% | viability, T/C [29]: 76.2% | viability, T/C [30]: 49.2% | viability, T/C [31]: 114% | viability, T/C [32]: 84.1% | viability, T/C [33]: 90.6% | viability, T/C [34]: 90% | viability, T/C [35]: 79.8% | viability, T/C [36]: 51%

CCc1cc2c(N3CCc4c(cc(Cn5ccnc5)cc4-c4cn(C)nc4C(F)(F)F)C3=O)ccnc2c(OC)n1 + Nc1ccc(C#CCN(C(=O)Cc2ncc(C(F)(F)F)cc2C(F)(F)F)c2ccc(F)cc2)nn1
IC50 (second compound 0.0316 µM): 2.59 µM | IC50 (second compound 0.1 µM): 2.41 µM | IC50 (second compound 0.316 µM): 2.61 µM | IC50 (second compound 1 µM): 2.33 µM | IC50 (second compound 3.16 µM): 3.44 µM | IC50 (second compound 10 µM): 2.63 µM | viability, T/C [1]: 84.2% | viability, T/C [2]: 77.9% | viability, T/C [3]: 84.1% | viability, T/C [4]: 76.3% | viability, T/C [5]: 44.5% | viability, T/C [6]: 29.7% | viability, T/C [7]: 83.7% | viability, T/C [8]: 82.7% | viability, T/C [9]: 78.2% | viability, T/C [10]: 67.9% | viability, T/C [11]: 44% | viability, T/C [12]: 37.5% | viability, T/C [13]: 86.3% | viability, T/C [14]: 74.6% | viability, T/C [15]: 64% | viability, T/C [16]: 64.8% | viability, T/C [17]: 49% | viability, T/C [18]: 34% | viability, T/C [19]: 83.6% | viability, T/C [20]: 70.5% | viability, T/C [21]: 74.8% | viability, T/C [22]: 60.7% | viability, T/C [23]: 44.8% | viability, T/C [24]: 31% | viability, T/C [25]: 97.5% | viability, T/C [26]: 95% | viability, T/C [27]: 72.7% | viability, T/C [28]: 68.8% | viability, T/C [29]: 52.1% | viability, T/C [30]: 33.9% | viability, T/C [31]: 83.8% | viability, T/C [32]: 84% | viability, T/C [33]: 69.7% | viability, T/C [34]: 67.3% | viability, T/C [35]: 45.5% | viability, T/C [36]: 31.4%

From PubChem BioAssay AID1963839 (Molecular Pharmacology Branch, DTP, NCI, 2024)
